# Results as given in ChEMBL document CHEMBL1201862, “PubChem BioAssay data set” (2004).
# The source made the active and inactive calls.
# Legend:
# [1] = molecular target: T1, Tyrosine-protein phosphatase non-receptor type 7 (Homo sapiens, UniProt P35236); type: functional
# T1 sequence (P35236 whole entry): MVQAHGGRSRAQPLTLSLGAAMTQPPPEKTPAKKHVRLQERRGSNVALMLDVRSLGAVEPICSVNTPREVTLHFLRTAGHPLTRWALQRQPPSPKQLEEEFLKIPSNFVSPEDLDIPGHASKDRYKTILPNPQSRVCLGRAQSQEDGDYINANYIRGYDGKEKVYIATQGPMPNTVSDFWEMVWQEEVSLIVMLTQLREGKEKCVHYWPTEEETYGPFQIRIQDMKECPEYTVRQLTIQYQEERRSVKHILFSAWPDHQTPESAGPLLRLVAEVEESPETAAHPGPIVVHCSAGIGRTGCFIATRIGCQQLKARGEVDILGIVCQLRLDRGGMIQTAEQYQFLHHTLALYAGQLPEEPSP
# [2] = molecular target: T2, Tyrosine-protein phosphatase non-receptor type 22 (Homo sapiens, UniProt Q9Y2R2); type: functional
# T2 sequence (Q9Y2R2 whole entry): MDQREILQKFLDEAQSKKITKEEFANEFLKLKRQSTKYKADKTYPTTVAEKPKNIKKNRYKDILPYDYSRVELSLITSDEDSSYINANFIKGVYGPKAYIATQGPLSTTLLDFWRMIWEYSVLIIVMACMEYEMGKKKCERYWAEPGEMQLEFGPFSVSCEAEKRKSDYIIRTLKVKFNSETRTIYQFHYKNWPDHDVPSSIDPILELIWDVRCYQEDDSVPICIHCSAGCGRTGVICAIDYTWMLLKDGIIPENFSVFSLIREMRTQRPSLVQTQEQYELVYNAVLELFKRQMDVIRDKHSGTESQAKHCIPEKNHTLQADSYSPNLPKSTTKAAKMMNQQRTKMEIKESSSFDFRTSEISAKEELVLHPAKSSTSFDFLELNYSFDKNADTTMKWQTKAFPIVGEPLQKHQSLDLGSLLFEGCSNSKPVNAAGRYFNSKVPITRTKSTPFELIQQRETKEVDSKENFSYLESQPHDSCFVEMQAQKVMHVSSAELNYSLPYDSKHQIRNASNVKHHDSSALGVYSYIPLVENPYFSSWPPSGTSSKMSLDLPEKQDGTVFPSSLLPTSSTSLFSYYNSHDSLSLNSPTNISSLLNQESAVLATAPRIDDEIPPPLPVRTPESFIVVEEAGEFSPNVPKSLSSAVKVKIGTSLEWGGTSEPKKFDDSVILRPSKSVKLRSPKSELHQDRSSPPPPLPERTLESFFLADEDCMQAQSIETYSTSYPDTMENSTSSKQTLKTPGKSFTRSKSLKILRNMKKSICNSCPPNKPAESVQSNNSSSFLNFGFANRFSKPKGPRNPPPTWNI
# [3] = molecular target: T2, Tyrosine-protein phosphatase non-receptor type 22; type: functional; remark: listed apart in the source
# [4] = molecular target: T3, Mannose-6-phosphate isomerase (Homo sapiens, UniProt P34949); test: MPI inhibition at elevated mannose 6-phosphate – biochemical, fluorescence intensity, high mannose 6-phosphate, primary screen (AID 1220)
# T3 sequence (P34949 whole entry): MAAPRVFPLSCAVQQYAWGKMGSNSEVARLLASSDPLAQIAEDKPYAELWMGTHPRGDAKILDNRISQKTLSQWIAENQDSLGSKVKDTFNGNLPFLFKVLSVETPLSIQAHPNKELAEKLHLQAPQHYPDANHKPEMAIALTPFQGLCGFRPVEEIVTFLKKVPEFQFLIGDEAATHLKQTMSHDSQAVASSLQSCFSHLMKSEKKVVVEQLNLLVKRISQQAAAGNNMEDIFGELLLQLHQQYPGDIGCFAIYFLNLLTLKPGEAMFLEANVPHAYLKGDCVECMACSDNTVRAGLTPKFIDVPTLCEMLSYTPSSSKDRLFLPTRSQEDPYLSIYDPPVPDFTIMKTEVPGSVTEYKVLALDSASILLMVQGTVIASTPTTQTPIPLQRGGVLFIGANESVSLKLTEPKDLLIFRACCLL
# Phosphomannomutase 2 = molecular target: T4, Phosphomannomutase 2 (Homo sapiens, UniProt O15305); test: Counter screen SAR assay for PMM2 inhibitors via a fluorescence intensity assay. [Related pubchem assays (depositor defined):AID1545, AID1574]
# T4 sequence (O15305 whole entry): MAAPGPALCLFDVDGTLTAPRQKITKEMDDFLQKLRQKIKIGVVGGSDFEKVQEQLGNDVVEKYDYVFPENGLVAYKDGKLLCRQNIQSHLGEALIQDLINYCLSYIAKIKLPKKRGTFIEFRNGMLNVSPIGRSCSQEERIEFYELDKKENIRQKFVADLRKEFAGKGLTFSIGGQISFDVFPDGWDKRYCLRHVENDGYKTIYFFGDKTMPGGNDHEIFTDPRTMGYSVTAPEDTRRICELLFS
# [5] = molecular target: T5, Voltage-gated N-type calcium channel alpha-1B subunit/Amyloid beta A4 precursor protein-binding family A member 1 (Homo sapiens, UniProt Q00975+Q02410); type: protein assay
# [6] = molecular target: DNA dC->dU-editing enzyme APOBEC-3G (Homo sapiens, UniProt Q9HC16); test: Dose Response confirmation of small molecule APOBEC3G DNA Deaminase Inhibitors via a fluorescence-based single-stranded DNA deaminase assay. [Related pubchem assays (depositor defined):AID493012, AID493028]; type: functional
# [7] = molecular target: T6, Runt-related transcription factor 1/Core-binding factor subunit beta (Homo sapiens, UniProt Q01196+Q13951); test: Runt domain/CBFb-SMMHC interaction disruptors – biochemical, TR-FRET (AID 1438); type: protein assay
# [8] = molecular target: T3, Mannose-6-phosphate isomerase; test: phosphomannose isomerase inhibition – biochemical, fluorescence intensity, confirmation (AID 1535)
# [9] = molecular target: T5, Voltage-gated N-type calcium channel alpha-1B subunit/Amyloid beta A4 precursor protein-binding family A member 1; type: protein assay; remark: listed apart in the source
# [10] = molecular target: Glucose-6-phosphate 1-dehydrogenase (Homo sapiens, UniProt P11413); test: inhibition of Homo sapiens G6PD, dose series – biochemical, fluorescence, selectivity assay for P. falciparum G6PD inhibitor project, dose response (AID 504792); type: functional
# [11] = molecular target: T6, Runt-related transcription factor 1/Core-binding factor subunit beta; test: disruptors of Runt domain/CBFb-SMMHC interaction – biochemical, FRET, Cerulean-Runt, Venus-CBFb-SMMHC, uHTS, […] (AID 1434); type: protein assay
# [12] = molecular target: DNA dC->dU-editing enzyme APOBEC-3A (Homo sapiens, UniProt P31941); test: A3A deaminase inhibition for selectivity – biochemical, dose response (AID 504722); type: functional
# [13] = molecular target: T7, G-protein coupled receptor 55 (Homo sapiens, UniProt Q9Y2T6); test: inhibition of LPI-stimulated GPR55 beta-arrestin translocation – imaging, U2OS, beta-arrestin-GFP, LPI agonist, primary screen (AID 2013); type: functional;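 note: antagonist potency measured as reduced agonist-driven arrestin aggregation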
# [14] = molecular target: T8, G-protein coupled receptor 35 (Homo sapiens, UniProt Q9HC97); test: SAR analysis of Antagonists of the GPR35 Receptor using an Image-Based Assay - Set 3. [Related pubchem assays (depositor defined):AID2013, AID2026]; type: functional
# [15] = molecular target: T8, G-protein coupled receptor 35; test: SAR analysis of Agonists of the GPR35 Receptor using an Image-Based Assay - Set 2. [Related pubchem assays (depositor defined):AID2013, AID2026]; type: functional
# Cannabinoid receptor 2 [16] = molecular target: T9, Cannabinoid receptor 2 (Homo sapiens, UniProt P34972); test: SAR analysis of agonists of the Cannabinoid Receptor 2 using an Image-Based Assay. [Related pubchem assays (depositor defined):AID2013, AID2026]; type: functional
# Cannabinoid receptor 1 [17] = molecular target: T10, Cannabinoid receptor 1 (Homo sapiens, UniProt P21554); test: SAR analysis of agonists of the Cannabinoid Receptor 1 using an Image-Based Assay - Set 2. [Related pubchem assays (depositor defined):AID2013, AID2026]; type: functional
# Cannabinoid receptor 1 [18] = molecular target: T10, Cannabinoid receptor 1; test: SAR analysis of antagonists of the Cannabinoid Receptor 1 using an Image-Based Assay - Set 2. [Related pubchem assays (depositor defined):AID2013, AID2026]; type: functional
# Cannabinoid receptor 2 [19] = molecular target: T9, Cannabinoid receptor 2; test: SAR analysis of antagonists of the Cannabinoid Receptor 2 using an Image-Based Assay. [Related pubchem assays (depositor defined):AID2013, AID2026]; type: functional
# [20] = molecular target: T7, G-protein coupled receptor 55; test: blockade of LPI-induced GPR55 arrestin translocation – imaging, U2OS, beta-arrestin-GFP, LPI agonist, set 2, SAR follow-up (AID 2820); type: functional
# [21] = A small molecule screen for inhibitors of the PhoP region in Salmonella typhi (4) using purified and synthesized compounds. [Related pubchem assays (depositor defined):AID1850, AID1864, AID1985, AID2252, AID2384, AID2612, AID2811, AID434995]; type: functional
# SUMO-activating enzyme [22] = molecular target: T11, SUMO-activating enzyme (Homo sapiens, UniProt Q9UBT2); test: blockers of UBC9-mediated SUMO conjugation – biochemical, AlphaScreen, SUMOylation inhibitor project, confirmation (AID 2018); type: functional
# SUMO-activating enzyme [23] = molecular target: T11, SUMO-activating enzyme; test: blockers of SAE1/SAE2–UBC9 SUMO transfer – biochemical, HTRF, uHTS, primary screen (AID 2006); type: protein-complex assay
# [24] = molecular target: Eukaryotic translation initiation factor 4H (Homo sapiens, UniProt Q15056); test: eIF4H binding inhibition – biochemical, uHTS, fluorescence polarization, translation initiation inhibitor project, primary screen (AID 2012)
# [25] = molecular target: T12, Alkaline phosphatase, tissue-nonspecific isozyme (Homo sapiens, UniProt P05186); test: activation of tissue-nonspecific alkaline phosphatase – biochemical, TNAP isozyme, mouse IAP uHTS hits, selectivity assay for mouse IAP activator project, dose response (AID 488880); type: functional
# T12 sequence (P05186 whole entry): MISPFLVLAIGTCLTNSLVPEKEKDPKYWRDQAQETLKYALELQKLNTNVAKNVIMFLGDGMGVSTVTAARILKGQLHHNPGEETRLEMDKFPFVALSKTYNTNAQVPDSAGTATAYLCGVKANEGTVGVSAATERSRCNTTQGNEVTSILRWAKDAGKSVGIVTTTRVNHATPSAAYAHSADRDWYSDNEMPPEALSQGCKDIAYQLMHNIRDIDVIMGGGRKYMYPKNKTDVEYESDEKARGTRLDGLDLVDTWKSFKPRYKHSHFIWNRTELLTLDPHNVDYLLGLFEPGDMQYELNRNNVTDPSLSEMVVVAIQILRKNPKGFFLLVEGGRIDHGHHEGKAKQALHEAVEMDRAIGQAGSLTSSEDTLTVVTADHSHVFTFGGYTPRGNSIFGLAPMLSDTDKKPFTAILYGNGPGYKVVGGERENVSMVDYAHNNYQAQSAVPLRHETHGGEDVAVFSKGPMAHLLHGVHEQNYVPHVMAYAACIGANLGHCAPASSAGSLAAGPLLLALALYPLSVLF
# [26] = molecular target: Intestinal-type alkaline phosphatase (Mus musculus, UniProt P24822); test: mouse intestinal alkaline phosphatase activators, dose response, biochemical, luminescence, uHTS hits (AID 488783); type: functional
# [27] = molecular target: Polyadenylate-binding protein 1 (Homo sapiens, UniProt P11940); test: blockers of PABP interaction with poly(A) – biochemical, fluorescence polarization, […] (AID 2014)
# [28] = molecular target: Intestinal-type alkaline phosphatase (Homo sapiens, UniProt P09923); test: activation of human intestinal alkaline phosphatase – biochemical, dose response (AID 488873); type: functional
# T5 sequence (Q00975 whole entry): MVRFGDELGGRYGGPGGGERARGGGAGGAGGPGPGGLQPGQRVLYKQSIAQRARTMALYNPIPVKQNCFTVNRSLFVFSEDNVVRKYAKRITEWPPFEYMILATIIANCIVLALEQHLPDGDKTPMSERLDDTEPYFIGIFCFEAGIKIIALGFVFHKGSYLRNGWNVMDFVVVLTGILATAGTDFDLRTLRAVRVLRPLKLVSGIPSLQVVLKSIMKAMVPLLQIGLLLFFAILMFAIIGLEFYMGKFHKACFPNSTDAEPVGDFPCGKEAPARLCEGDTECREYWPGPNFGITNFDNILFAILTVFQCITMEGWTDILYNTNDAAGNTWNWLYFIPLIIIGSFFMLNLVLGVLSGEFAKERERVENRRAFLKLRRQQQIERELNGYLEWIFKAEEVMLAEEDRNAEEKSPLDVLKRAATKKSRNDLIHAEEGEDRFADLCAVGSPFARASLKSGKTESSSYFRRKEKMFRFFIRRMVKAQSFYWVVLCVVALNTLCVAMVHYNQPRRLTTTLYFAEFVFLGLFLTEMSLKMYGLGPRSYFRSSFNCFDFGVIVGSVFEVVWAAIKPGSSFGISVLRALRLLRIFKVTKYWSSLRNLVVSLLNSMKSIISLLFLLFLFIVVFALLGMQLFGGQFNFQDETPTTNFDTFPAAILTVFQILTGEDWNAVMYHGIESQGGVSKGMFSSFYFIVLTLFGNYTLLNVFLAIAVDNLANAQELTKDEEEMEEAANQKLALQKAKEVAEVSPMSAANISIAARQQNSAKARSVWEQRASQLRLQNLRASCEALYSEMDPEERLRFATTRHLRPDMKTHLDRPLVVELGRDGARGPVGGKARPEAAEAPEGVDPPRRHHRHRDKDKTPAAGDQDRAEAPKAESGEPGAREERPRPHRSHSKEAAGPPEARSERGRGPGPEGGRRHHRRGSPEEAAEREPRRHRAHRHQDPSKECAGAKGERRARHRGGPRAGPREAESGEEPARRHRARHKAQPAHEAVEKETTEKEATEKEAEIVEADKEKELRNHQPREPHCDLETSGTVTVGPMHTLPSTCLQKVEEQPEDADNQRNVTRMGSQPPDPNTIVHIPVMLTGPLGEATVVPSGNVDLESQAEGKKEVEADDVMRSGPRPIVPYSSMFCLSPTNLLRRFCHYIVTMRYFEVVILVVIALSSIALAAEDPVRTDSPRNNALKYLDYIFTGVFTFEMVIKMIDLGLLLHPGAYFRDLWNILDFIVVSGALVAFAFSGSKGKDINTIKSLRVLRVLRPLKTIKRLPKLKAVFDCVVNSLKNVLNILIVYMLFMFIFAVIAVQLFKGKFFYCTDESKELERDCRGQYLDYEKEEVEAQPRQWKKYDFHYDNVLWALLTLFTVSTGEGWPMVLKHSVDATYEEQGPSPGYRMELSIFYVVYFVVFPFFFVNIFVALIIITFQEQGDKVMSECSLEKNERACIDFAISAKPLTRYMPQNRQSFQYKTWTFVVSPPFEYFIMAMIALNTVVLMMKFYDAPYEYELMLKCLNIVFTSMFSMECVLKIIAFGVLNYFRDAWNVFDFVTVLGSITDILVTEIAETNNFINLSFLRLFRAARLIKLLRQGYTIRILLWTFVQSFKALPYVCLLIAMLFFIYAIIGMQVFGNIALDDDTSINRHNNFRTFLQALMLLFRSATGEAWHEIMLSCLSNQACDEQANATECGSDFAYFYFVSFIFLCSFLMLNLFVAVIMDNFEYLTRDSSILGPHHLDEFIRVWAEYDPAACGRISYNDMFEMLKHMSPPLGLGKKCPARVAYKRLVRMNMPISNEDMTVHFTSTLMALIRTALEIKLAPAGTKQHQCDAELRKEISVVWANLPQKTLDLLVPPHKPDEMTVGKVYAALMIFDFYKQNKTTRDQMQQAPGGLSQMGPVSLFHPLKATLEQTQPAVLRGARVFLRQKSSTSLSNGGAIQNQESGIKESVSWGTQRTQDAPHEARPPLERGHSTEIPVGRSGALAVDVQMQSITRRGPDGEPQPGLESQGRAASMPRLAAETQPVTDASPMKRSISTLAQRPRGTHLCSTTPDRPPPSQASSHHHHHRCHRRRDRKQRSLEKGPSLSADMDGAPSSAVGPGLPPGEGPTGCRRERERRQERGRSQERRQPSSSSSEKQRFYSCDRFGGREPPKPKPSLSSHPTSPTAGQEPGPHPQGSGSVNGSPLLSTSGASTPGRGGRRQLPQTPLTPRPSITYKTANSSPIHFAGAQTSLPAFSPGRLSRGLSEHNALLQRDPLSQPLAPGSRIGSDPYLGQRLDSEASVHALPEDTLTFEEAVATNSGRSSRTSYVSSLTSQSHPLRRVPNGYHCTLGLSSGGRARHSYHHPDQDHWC
# T5 sequence (Q02410 whole entry): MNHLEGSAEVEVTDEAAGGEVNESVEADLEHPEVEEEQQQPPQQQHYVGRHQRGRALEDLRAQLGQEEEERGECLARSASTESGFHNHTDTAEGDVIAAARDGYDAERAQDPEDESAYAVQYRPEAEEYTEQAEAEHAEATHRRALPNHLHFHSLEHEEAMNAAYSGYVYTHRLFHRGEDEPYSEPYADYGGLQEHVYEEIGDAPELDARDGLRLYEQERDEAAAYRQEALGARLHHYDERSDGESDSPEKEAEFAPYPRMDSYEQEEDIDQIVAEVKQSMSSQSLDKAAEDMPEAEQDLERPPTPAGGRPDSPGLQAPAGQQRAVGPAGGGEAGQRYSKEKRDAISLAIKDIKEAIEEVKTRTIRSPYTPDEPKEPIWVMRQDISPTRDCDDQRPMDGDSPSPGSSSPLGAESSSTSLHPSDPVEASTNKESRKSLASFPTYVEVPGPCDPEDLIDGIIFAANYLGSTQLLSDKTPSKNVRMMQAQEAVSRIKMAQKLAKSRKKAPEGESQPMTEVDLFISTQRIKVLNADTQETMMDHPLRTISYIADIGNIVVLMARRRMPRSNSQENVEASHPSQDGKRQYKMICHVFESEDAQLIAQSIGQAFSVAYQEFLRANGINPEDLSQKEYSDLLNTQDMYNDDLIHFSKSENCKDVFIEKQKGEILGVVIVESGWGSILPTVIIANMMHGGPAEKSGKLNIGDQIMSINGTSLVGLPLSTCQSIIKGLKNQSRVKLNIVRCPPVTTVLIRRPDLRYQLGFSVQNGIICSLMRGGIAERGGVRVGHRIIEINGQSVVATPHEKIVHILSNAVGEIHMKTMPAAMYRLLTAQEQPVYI
# T7 sequence (Q9Y2T6 whole entry): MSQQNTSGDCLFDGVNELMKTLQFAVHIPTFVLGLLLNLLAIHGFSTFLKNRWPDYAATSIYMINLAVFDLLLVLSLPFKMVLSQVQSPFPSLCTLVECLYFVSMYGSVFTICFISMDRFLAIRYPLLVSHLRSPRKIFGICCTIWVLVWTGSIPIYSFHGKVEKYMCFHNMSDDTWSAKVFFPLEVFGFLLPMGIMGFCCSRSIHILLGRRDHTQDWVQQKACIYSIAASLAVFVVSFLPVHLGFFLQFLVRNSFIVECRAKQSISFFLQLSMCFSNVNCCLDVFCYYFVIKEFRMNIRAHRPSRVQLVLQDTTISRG
# T11 sequence (Q9UBE0 whole entry): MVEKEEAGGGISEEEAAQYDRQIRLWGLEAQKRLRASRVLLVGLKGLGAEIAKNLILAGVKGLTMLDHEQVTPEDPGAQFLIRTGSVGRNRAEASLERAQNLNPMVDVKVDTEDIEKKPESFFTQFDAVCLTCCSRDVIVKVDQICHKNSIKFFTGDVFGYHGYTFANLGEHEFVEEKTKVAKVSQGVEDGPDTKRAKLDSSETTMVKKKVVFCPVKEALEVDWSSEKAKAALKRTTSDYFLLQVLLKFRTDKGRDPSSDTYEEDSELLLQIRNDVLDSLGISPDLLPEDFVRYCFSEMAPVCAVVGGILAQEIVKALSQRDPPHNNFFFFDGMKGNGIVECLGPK
# T11 sequence (Q9UBT2 whole entry): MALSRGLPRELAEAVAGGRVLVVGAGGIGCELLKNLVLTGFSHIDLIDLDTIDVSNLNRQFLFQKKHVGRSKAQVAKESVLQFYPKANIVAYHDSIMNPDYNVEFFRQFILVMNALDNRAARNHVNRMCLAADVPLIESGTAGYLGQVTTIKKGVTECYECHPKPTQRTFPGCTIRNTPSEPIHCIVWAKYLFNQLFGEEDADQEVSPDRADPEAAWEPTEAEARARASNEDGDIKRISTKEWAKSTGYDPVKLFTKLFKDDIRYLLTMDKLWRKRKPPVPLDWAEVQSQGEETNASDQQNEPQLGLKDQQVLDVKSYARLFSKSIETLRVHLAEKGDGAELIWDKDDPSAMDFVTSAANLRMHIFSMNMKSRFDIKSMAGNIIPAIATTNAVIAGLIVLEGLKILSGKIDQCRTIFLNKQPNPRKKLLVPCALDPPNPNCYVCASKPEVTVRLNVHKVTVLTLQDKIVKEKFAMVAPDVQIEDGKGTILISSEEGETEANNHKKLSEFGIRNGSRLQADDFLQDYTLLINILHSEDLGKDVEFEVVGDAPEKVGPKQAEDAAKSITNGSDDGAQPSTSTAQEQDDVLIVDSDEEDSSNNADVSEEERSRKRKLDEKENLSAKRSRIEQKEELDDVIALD
# T10 sequence (P21554 whole entry): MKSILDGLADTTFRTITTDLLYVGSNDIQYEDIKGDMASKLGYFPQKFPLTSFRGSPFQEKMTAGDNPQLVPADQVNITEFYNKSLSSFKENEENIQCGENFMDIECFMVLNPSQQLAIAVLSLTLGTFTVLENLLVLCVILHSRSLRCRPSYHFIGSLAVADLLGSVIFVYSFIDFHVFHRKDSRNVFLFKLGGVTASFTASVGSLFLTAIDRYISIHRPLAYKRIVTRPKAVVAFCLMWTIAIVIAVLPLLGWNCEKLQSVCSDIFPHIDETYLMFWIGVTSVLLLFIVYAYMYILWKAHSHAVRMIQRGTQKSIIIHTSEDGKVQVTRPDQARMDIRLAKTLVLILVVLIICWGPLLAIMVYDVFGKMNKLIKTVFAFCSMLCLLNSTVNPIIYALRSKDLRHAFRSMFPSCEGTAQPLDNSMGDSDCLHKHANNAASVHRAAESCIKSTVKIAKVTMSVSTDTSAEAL
structure (smiles),measurement,setting,value
Cc1cccc(-n2cc(CN3CCN(C(=O)c4nc[nH]n4)CC3)c(-c3cccc(F)c3)n2)c1,IC50,[1],> 79.4 µM (inactive)
same,IC50,[2],> 79.4 µM (inactive)
same,IC50,[3],> 79.4 µM (inactive)
CCOC(=O)Cc1csc(-n2sc3ccccc3c2=O)n1,IC50,[4],23.5 µM (active)
same,IC50,Phosphomannomutase 2,> 100 µM (inactive)
same,IC50,[5],1.15 µM (active)
same,IC50,[6],12.6 µM (active)
same,IC50,[7],8.58 µM (active)
same,IC50,[8],> 50 µM (inactive)
same,IC50,[9],> 50 µM (inactive)
same,IC50,[10],21.6 µM (inactive)
same,IC50,[11],5.4 µM (active)
same,IC50,[12],> 100 µM (inactive)
CCCCC1(Cc2cccc([N+](=O)[O-])c2)C(=O)N(c2ccccc2)N(c2ccccc2)C1=O,IC50,[13],0.552 µM (active)
same,IC50,[14],> 32 µM (inactive)
same,EC50,[15],> 32 µM (inactive)
same,EC50,Cannabinoid receptor 2 [16],> 32 µM (inactive)
same,EC50,Cannabinoid receptor 1 [17],> 32 µM (inactive)
same,IC50,Cannabinoid receptor 1 [18],11 µM (inactive)
same,IC50,Cannabinoid receptor 2 [19],> 32 µM (inactive)
same,IC50,[20],0.577 µM (active)
COc1cccc(CNC(=S)Nc2ccncc2)c1,IC50,[21],164 µM (active)
Cc1ccc(C(=O)Nc2nnc(CC(=O)N/N=C/c3ccc(O)c(O)c3)s2)cc1,IC50,SUMO-activating enzyme [22],1.71 µM (active)
same,IC50,SUMO-activating enzyme [23],37.1 µM (active)
same,IC50,[24],4.81 µM (active)
same,EC50,[25],47.8 µM (active)
same,EC50,[26],37.2 µM (active)
same,IC50,[27],46 µM (active)
same,EC50,[28],66 µM (active)
